{
  "source": "patent US20230346771A1",
  "about": "“INHIBITORS OF ENPP1 AND MODULATION OF BONE GROWTH” (Petragen, Inc., priority 2022, published 2023)",
  "test_system": "fenestration defects on buccal aspect of mandibular first molar in mice",
  "test": "Fenestration defect model with microCT of mandibles",
  "assay_type": "in vivo",
  "details": "high dose (10 uM, 1 uL on collagen sponge in defect); 28 days; compared to ALPL, DMSO and low dose",
  "method": "Fenestration defects were created on buccal aspect of mandibular first molar, distal root, in 6-7 week old mice. Collagen sponge with 1 uL of either alkaline phosphatase (ALPL) (100 ng/uL), DMSO (1 uL undiluted), high dose ENPP1 inhibitor (10 uM), low dose ENPP1 inhibitor (1 uM) was applied in the defect (n=3 or 4 for each group). Mice were euthanized 28 days later, and their mandibles were microCT scanned (unoperated side, defect side). A region of interest was defined as follows: • Right and left sides registered to each other to standardize position; • 480 microns mesial to and 3600 microns distal to first molar mesial height of contour; and\nUnoperated side with defect side were registered, the enamel was removed from analysis, and change in volume (defect side—control side) was calculated from for dentin/cementum and alveolar bone for each treatment: ALPL, DMSO, low dose ENPP1 inhibitor, and high dose ENPP1 inhibitor. Regenerated bone area was much larger than defect size. To make the defect, muscle attachment was severed, and the region was curetted. Because the collagen sponge was placed in the defect and not fully enclosed (muscle was repositioned and sutured over sponge), there could be some leakage of DMSO/ALP/ENPP1 inhibitor, further stimulating bone growth.",
  "data": [
    {"smiles": "COc1ccc2c(-c3ccc(CNS(N)(=O)=O)cc3)ccnc2c1", "note": "[ENPP1 inhibitor, N-[[4-(7-methoxy-4-quinolinyl)phenyl]methyl]-sulfamide]", "values": [
      {"measurement": "bone densities on the fenestration side (density heat maps)", "value": "higher"}
    ]}
  ]
}
